Holding throughout (test): Kinase inhibitor specificity profiling (Reaction Biology Corporation)
Assay type in all cases: biochemical
What all share (parameters): % Enzyme Activity (relative to DMSO controls): concentration or dose not given beside the values

Experiment [1] concerns the target T1, panel of 370 protein kinases (Homo sapiens, UniProt O75716).
T1 construct: purchased Reaction Biology Corporation (assay service)
Particulars: 2 h, kinase STK16; read-out: % Enzyme Activity (relative to DMSO controls).

Experiment [2] concerns the target T2, panel of 370 protein kinases (Homo sapiens, UniProt Q96S53).
T2 construct: purchased Reaction Biology Corporation (assay service)
Particulars: 2 h, kinase TESK2; read-out: % Enzyme Activity (relative to DMSO controls).

Experiment [3] concerns the target T3, panel of 370 protein kinases (Homo sapiens, UniProt Q13043).
T3 construct: purchased Reaction Biology Corporation (assay service)
Particulars: kinase MST1/STK4.

The target in experiment [4] is T4, panel of 370 protein kinases (Homo sapiens, UniProt O96017).
T4 construct: purchased Reaction Biology Corporation (assay service)
Particulars: 2 h, kinase CHK2; read-out: % Enzyme Activity (relative to DMSO controls).

Experiment [5] concerns the target T5, panel of 370 protein kinases (Homo sapiens, UniProt P04049).
T5 construct: purchased Reaction Biology Corporation (assay service)
Particulars: 2 h, kinase RAF1; read-out: % Enzyme Activity (relative to DMSO controls).

For experiment [6], the target named is T6, panel of 370 protein kinases (Homo sapiens, UniProt Q9P1W9).
T6 construct: purchased Reaction Biology Corporation (assay service)
Particulars: 2 h, kinase PIM2; read-out: % Enzyme Activity (relative to DMSO controls).

The target of experiment [7] is T7, panel of 370 protein kinases (Homo sapiens, UniProt Q8WXR4).
T7 construct: purchased Reaction Biology Corporation (assay service)
Particulars: 2 h, kinase MYO3b; read-out: % Enzyme Activity (relative to DMSO controls).

For experiment [8], the target named is T8, panel of 370 protein kinases (Homo sapiens, UniProt Q13188).
T8 construct: purchased Reaction Biology Corporation (assay service)
Particulars: 2 h, kinase MST2/STK3; read-out: % Enzyme Activity (relative to DMSO controls).

Experiment [9] addresses T9, panel of 370 protein kinases (Homo sapiens, UniProt O96013).
T9 construct: purchased Reaction Biology Corporation (assay service)
Particulars: 2 h, kinase PAK4; read-out: % Enzyme Activity (relative to DMSO controls).

The target of experiment [10] is T10, panel of 370 protein kinases (Homo sapiens, UniProt O94804).
T10 construct: purchased Reaction Biology Corporation (assay service)
Particulars: kinase LOK/STK10.

Experiment [11] deals with T11, panel of 370 protein kinases (Homo sapiens, UniProt O75385).
T11 construct: purchased Reaction Biology Corporation (assay service)
Particulars: kinase ULK1.

Experiment [12] has as its target T12, panel of 370 protein kinases (Homo sapiens, UniProt Q96PY6).
T12 construct: purchased Reaction Biology Corporation (assay service)
Particulars: 2 h, kinase NEK1; read-out: % Enzyme Activity (relative to DMSO controls).

In experiment [13] the target is T13, panel of 370 protein kinases (Homo sapiens, UniProt Q9UF33).
T13 construct: purchased Reaction Biology Corporation (assay service)
Particulars: 2 h, kinase EPHA6; read-out: % Enzyme Activity (relative to DMSO controls).

The target in experiment [14] is T14, panel of 370 protein kinases (Homo sapiens, UniProt Q9P0L2).
T14 construct: purchased Reaction Biology Corporation (assay service)
Particulars: 2 h, kinase MARK1; read-out: % Enzyme Activity (relative to DMSO controls).

For experiment [15], the target named is T15, panel of 370 protein kinases (Homo sapiens, UniProt Q99683).
T15 construct: purchased Reaction Biology Corporation (assay service)
Particulars: 2 h, kinase ASK1/MAP3K5; read-out: % Enzyme Activity (relative to DMSO controls).

The target of experiment [16] is T16, panel of 370 protein kinases (Homo sapiens, UniProt Q8NEV4).
T16 construct: purchased Reaction Biology Corporation (assay service)
Particulars: 2 h, kinase MYO3A; read-out: % Enzyme Activity (relative to DMSO controls).

Experiment [17] addresses T17, panel of 370 protein kinases (Homo sapiens, UniProt P19784).
T17 construct: purchased Reaction Biology Corporation (assay service)
Particulars: 2 h, kinase CK2a2; read-out: % Enzyme Activity (relative to DMSO controls).

The target of experiment [18] is T18, panel of 370 protein kinases (Homo sapiens, UniProt Q05513).
T18 construct: purchased Reaction Biology Corporation (assay service)
Particulars: 2 h, kinase PKCzeta; read-out: % Enzyme Activity (relative to DMSO controls).

For experiment [19], the target named is T19, panel of 370 protein kinases (Homo sapiens, UniProt Q9H4B4).
T19 construct: purchased Reaction Biology Corporation (assay service)
Particulars: 2 h, kinase PLK3; read-out: % Enzyme Activity (relative to DMSO controls).

For experiment [20], the target named is T20, panel of 370 protein kinases (Homo sapiens, UniProt P08581).
T20 construct: purchased Reaction Biology Corporation (assay service)
Particulars: kinase c-MET.

Experiment [21] deals with T21, panel of 370 protein kinases (Homo sapiens, UniProt Q16513).
T21 construct: purchased Reaction Biology Corporation (assay service)
Particulars: 2 h, kinase PKN2/PRK2; read-out: % Enzyme Activity (relative to DMSO controls).

Experiment [22] concerns the target T22, panel of 370 protein kinases (Homo sapiens, UniProt P41240).
T22 construct: purchased Reaction Biology Corporation (assay service)
Particulars: kinase CSK.

Where “and” joins values, the source holds several entries; their conditions need not be identical. Identical values can stand only once.

T3 sequence (Q13043 whole entry): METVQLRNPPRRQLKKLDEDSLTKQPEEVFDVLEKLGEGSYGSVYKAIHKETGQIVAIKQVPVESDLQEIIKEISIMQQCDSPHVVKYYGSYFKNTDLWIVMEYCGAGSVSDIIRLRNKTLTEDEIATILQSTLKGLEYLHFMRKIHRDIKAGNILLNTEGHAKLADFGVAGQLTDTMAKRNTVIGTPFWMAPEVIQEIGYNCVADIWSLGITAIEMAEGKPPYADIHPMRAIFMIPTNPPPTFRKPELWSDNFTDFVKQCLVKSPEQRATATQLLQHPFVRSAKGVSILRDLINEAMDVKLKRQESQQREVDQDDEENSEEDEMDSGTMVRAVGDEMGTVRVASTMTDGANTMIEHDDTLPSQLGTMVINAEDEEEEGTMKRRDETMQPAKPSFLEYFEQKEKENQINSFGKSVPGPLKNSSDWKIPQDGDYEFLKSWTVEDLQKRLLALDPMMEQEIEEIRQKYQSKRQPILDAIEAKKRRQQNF
T10 sequence (O94804 whole entry): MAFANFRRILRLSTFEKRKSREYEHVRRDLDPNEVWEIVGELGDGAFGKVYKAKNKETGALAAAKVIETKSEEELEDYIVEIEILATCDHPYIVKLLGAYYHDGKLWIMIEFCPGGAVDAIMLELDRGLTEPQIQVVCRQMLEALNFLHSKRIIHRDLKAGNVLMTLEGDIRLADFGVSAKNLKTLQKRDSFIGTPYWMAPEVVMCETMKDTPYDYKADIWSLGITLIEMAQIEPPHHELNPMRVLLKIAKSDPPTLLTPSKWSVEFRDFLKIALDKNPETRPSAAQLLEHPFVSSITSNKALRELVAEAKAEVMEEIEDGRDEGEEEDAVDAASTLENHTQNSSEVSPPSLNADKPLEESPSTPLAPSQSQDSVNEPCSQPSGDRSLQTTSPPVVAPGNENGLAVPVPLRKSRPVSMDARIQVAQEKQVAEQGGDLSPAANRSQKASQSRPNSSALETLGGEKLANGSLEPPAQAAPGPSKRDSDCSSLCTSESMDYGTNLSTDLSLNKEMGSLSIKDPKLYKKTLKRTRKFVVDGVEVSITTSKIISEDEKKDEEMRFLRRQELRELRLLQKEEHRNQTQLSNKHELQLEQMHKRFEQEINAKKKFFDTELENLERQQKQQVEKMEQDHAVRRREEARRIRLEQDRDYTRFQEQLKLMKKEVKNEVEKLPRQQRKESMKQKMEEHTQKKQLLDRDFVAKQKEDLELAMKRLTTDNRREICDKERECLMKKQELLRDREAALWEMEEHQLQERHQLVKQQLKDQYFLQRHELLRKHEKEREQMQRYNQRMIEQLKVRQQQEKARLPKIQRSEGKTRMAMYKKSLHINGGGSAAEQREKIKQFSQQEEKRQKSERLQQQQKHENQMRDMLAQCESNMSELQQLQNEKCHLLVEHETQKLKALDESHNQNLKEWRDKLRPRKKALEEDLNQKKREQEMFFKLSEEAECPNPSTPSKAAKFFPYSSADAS
T22 sequence (P41240 whole entry): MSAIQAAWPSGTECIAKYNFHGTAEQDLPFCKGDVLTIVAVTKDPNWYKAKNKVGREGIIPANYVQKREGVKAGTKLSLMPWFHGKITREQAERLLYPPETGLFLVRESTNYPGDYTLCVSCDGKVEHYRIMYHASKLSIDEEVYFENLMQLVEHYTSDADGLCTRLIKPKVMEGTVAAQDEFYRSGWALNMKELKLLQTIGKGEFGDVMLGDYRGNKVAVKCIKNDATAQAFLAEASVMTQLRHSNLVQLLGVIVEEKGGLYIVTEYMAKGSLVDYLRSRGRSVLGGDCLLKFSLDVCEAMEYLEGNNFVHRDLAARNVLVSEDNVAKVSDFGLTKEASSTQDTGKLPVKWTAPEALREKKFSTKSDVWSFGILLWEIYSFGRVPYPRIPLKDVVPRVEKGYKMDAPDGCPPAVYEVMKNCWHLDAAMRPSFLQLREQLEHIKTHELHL
T11 sequence (O75385 whole entry): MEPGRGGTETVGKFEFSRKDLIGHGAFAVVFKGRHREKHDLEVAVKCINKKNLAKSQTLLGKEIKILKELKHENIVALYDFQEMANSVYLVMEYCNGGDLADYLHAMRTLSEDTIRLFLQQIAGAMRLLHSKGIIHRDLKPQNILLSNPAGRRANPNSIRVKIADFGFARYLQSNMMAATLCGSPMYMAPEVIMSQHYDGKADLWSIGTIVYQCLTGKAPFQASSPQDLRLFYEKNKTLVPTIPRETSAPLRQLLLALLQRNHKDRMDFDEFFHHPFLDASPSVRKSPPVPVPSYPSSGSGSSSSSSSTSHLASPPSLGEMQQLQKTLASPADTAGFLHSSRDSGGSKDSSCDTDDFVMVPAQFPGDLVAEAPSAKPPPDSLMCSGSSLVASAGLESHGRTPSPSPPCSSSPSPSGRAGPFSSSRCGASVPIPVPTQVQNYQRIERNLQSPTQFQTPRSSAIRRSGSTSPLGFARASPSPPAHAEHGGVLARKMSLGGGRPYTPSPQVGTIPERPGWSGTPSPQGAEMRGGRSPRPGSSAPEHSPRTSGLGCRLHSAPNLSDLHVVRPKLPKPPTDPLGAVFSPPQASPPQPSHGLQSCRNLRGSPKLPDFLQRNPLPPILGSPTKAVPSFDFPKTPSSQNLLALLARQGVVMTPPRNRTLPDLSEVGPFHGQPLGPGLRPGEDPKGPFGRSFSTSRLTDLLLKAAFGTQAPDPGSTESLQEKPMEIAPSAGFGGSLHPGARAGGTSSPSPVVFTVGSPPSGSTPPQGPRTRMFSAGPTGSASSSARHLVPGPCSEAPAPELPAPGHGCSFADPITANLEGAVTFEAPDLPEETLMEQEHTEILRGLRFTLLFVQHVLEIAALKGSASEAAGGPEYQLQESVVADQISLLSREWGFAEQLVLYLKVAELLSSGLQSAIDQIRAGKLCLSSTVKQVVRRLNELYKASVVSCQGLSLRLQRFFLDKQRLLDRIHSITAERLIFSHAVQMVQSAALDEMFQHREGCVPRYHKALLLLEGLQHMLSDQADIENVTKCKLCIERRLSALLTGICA
T20 sequence (P08581 25-1390): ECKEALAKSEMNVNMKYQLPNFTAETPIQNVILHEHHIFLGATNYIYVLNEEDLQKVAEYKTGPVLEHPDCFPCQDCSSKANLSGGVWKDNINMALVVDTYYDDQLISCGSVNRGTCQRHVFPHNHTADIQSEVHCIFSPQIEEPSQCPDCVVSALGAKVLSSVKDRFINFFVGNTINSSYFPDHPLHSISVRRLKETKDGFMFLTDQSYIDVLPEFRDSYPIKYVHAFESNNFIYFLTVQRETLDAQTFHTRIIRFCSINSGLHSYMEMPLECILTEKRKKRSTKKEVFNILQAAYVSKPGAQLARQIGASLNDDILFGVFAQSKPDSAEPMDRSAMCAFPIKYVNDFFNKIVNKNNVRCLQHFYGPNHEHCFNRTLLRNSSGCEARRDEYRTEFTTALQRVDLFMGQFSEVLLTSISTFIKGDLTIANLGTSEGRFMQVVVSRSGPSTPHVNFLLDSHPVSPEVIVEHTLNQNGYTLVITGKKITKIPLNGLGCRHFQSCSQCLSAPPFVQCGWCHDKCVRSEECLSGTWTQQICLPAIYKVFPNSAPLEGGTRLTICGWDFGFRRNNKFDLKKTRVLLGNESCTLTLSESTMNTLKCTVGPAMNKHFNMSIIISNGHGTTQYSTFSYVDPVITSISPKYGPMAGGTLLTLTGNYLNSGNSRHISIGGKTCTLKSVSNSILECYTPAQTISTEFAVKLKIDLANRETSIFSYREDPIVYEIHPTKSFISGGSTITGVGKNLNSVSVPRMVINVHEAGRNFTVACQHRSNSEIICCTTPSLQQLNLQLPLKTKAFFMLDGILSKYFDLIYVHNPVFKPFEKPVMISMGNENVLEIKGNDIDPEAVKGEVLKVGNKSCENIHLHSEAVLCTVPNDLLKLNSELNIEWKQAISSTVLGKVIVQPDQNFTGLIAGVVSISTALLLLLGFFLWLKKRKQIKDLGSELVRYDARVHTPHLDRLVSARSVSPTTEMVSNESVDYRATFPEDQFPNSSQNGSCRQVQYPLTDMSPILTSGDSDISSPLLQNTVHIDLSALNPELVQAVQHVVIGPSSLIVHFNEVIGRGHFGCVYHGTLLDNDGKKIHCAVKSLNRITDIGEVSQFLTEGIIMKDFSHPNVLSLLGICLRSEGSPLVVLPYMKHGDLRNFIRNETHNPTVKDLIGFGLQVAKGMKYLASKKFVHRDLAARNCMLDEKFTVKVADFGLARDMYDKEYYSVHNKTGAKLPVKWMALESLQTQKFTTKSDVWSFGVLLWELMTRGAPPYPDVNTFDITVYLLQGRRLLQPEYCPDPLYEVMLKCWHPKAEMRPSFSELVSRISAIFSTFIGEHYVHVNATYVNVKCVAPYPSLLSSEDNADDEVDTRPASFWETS
T19 sequence (Q9H4B4 whole entry): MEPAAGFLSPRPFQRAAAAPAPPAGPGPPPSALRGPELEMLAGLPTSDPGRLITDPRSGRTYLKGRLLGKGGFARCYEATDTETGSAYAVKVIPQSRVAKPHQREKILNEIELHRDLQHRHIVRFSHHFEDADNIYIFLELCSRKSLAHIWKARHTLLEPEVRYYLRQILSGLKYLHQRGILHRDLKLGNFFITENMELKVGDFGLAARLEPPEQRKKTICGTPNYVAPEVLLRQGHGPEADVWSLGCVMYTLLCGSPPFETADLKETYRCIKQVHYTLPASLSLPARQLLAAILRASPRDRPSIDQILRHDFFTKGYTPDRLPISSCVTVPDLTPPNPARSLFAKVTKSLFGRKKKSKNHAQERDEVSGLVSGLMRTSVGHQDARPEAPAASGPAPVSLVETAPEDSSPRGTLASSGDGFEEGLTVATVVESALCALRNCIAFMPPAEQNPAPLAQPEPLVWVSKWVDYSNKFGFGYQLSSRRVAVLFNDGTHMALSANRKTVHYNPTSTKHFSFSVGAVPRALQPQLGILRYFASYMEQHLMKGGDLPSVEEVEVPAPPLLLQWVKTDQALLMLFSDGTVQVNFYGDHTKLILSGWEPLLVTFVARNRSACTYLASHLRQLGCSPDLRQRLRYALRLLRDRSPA

In the case of `CCN1CCN(C(=O)c2ccc(Nc3ncc(F)c(-c4ccc5nc(N(C)C)sc5c4)n3)nc2)CC1` [YK-2-69], the remaining activity at 1 µM in experiment [1] was found to be 57.5%; in [2], 98.2%; in experiment [4], 97.6%; in experiment [5], 106%; in experiment [6] it was 90.4%; in experiment [7] it was 106%. In addition, the remaining activity at 1 µM in experiment [8] amounted to 98.9%; in experiment [9], 108%; in [12], 69.2%; in experiment [13], 104%; in [14] it was 88%; in experiment [15], 106%. Also, the remaining activity at 1 µM in [16] is 103%; in experiment [17], 51.4%; in experiment [18], 83.8%; in experiment [19], 99.7%; in [21], 88.4%. The “% Enzyme Activity (relative to DMSO controls)” value was 107.26% and 103.88% in experiment [3]; 97.88% and 97.48% in [10]; 101.30% and 99.93% in experiment [11]; 79.77% and 77.94% in [20]; 102.94% and 101.79% in experiment [22].

The values are drawn from paper PMC9133015 (Nature Communications, 2022).
